What was measured:
Assay type in all cases: binding
[1] = molecular target: T1, panel of 442 kinases (Homo sapiens, UniProt Q99755); details: Compound Concentration 10 µM
T1 construct: purchased KINOMEscan
Description: (§1) We assessed the selectivity of members of this scaffold using the KINOMEscan methodology across a near comprehensive panel of 442 kinases [[18,27]].

[2] = molecular target: T2, panel of 442 kinases (Homo sapiens, UniProt P42336, E542K); details: Compound Concentration 10 µM
T2 construct: purchased KINOMEscan
T2 sequence (P42336 whole entry E542K): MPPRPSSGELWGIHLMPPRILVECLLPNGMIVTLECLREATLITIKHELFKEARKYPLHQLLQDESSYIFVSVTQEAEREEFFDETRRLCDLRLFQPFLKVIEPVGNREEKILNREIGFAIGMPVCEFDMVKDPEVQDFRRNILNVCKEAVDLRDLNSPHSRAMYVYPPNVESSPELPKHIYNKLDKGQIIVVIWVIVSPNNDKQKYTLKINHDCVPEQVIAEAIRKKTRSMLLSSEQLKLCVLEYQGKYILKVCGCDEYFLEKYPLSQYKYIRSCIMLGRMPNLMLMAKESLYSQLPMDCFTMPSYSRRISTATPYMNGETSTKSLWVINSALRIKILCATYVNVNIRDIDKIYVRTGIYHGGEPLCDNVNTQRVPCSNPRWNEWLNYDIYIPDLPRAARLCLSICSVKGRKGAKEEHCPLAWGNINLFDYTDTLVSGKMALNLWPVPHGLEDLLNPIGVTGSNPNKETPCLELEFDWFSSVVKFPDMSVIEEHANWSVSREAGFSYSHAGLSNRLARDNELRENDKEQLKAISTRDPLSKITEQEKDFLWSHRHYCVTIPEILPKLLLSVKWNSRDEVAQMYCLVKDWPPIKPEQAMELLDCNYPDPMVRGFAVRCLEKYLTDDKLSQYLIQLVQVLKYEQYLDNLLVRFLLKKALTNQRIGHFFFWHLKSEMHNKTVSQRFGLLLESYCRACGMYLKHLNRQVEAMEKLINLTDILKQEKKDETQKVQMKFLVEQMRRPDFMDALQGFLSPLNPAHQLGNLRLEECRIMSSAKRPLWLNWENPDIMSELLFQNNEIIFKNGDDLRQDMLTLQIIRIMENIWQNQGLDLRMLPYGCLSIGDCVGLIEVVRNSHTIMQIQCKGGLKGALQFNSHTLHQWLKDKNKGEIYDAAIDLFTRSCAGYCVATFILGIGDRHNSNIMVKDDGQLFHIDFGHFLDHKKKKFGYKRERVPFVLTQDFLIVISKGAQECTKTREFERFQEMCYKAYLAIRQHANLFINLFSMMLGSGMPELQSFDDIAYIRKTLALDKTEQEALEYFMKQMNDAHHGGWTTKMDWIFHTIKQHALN
Description: as §1

[3] = molecular target: T3, panel of 442 kinases (Homo sapiens, UniProt Q86UX6); details: kinase YANK3; compound concentration 10 µM
T3 construct: purchased KINOMEscan
T3 sequence (Q86UX6 whole entry): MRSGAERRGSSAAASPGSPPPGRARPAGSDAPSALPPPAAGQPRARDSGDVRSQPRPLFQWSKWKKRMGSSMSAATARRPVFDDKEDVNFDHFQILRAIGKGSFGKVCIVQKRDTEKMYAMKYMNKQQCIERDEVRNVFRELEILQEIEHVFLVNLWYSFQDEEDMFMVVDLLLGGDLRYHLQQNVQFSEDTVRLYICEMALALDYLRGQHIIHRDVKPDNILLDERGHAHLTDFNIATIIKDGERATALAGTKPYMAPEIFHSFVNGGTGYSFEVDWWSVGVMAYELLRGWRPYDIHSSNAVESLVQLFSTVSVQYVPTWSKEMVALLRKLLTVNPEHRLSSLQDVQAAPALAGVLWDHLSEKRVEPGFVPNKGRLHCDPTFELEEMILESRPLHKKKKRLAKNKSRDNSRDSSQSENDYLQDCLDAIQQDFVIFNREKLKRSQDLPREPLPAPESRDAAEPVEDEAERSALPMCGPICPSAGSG
Description: as §1

T1 sequence (Q99755 whole entry): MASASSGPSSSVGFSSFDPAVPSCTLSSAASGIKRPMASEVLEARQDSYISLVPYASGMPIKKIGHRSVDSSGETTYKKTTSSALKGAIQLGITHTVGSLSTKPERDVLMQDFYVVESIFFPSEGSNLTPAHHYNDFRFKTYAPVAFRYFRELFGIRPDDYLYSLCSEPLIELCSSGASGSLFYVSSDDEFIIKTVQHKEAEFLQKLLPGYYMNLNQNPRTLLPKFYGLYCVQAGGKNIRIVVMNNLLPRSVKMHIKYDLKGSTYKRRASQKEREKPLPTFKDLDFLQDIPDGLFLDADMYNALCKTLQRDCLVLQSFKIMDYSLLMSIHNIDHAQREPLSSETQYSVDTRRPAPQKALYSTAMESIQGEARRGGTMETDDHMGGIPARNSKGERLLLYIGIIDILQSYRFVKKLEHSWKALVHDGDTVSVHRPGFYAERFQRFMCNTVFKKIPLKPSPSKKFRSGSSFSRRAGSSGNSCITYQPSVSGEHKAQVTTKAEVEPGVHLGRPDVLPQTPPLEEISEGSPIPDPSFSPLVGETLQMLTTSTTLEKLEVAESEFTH

Structure (SMILES) | KINOMEscan: PIP5K1A [1] | KINOMEscan: PIK3CA(E542K) [2] | % Ctrl, YANK3 [3] [% Ctrl]
CCOc1cc(C(=O)N2CCC(N3CCN(C)CC3)CC2)ccc1Nc1ncc2c(n1)N(C1CCCC1)c1ccccc1C(=O)N2C [Compound 26] | 78 | 100 | 100
COc1cc(C(=O)N2CCC(N3CCN(C)CC3)CC2)ccc1Nc1ncc2c(n1)N(C1CCCC1)c1ccccc1C(=O)N2C [Compound 25, 11-cyclopentyl-2-((2-methoxy-4-(4-(4-methylpiperazin-1-yl)piperidine-1-carbonyl)phenyl)amino)-5-methyl-5H-benzo[e]pyrimido[5,4-b][1,4]diazepin-6(11H)-one] | 100 | 98 | 100
COc1cc(C(=O)N2CCC(N3CCN(C)CC3)CC2)ccc1Nc1ncc2c(n1)N1CCc3cccc(c31)C(=O)N2C [Compound 24] | – | – | 100
COc1cc(C(=O)N2CCC(N3CCN(C)CC3)CC2)ccc1Nc1ncc2c(n1)N(C)c1ccccc1C(=O)N2C [15 (LRRK2-IN-1)] | 90 | 77 | 100
